Data from paper PMC6934184, “Selective DNA-PKcs inhibition extends the therapeutic index of localized radiotherapy and chemotherapy” (The Journal of Clinical Investigation, 2019).

Molecular target: T1, TGFBR2 (Homo sapiens, UniProt P37173)
T1 construct: purchased Thermo Fisher Scientific (Life Technologies) SelectScreen
Experiment: SelectScreen LanthaScreen
Format: binding
Settings: read-out: % displacement
Outline: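 SelectScreen broad panel; activity (Z'LYTE, Adapta) plus binding formats. ATP: Km app for CSF1R Z'LYTE; 10 for CAMK1 Adapta. Readout = % per kinase.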

T1 sequence (P37173 23-567): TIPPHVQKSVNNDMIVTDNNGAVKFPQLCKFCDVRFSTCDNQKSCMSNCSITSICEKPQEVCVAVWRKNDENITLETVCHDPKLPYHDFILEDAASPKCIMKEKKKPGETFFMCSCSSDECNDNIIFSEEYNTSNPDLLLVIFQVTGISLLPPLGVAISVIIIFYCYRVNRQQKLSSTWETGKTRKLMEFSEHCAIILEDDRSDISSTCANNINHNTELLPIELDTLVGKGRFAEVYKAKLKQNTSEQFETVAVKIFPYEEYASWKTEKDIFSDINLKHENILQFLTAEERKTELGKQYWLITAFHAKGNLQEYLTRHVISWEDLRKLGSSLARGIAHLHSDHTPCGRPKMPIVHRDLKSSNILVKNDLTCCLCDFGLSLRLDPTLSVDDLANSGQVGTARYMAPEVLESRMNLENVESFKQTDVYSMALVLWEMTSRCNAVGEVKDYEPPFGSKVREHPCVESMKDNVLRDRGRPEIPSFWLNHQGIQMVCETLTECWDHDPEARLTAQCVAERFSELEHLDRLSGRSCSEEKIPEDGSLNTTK

Work on `CN(C(=O)CN1CCOCC1)c1ccc2sc3c(-c4cccc5c(=O)cc(N6CC7CCC(C6)O7)oc45)cccc3c2c1` [NU5455] yielded an inhibition at 1 µM of -0.1%.
